Structures are written as SMILES.

The assay has as its target T1, human PAD4 (Homo sapiens, UniProt Q9UM07).
T1 construct: human PAD4 (NM_012387), A2-P663, was PCR amplified; His-SUMO (N, cleaved yes); made in house; host or cells: E. coli BL21(DE3)
As to the kind of experiment: In vitro PAD4 BAEE biochemical assay. The note with it: BAEE substrate 3 mM, 5 nM PAD4, 2 mM calcium chloride; geometric mean of multiple experiments. The gist of the method: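 Assay was run at 25 °C using 3 mM BAEE and 5 nM human PAD4 after a 30 min compound preincubation; ammonia produced over 2 h was quantified by OPA-derived fluorescence. Full inhibition was defined by 50 µM BB-Cl-Amidine, and IC50 came from variable-slope nonlinear regression.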

T1 sequence (Q9UM07 2-663): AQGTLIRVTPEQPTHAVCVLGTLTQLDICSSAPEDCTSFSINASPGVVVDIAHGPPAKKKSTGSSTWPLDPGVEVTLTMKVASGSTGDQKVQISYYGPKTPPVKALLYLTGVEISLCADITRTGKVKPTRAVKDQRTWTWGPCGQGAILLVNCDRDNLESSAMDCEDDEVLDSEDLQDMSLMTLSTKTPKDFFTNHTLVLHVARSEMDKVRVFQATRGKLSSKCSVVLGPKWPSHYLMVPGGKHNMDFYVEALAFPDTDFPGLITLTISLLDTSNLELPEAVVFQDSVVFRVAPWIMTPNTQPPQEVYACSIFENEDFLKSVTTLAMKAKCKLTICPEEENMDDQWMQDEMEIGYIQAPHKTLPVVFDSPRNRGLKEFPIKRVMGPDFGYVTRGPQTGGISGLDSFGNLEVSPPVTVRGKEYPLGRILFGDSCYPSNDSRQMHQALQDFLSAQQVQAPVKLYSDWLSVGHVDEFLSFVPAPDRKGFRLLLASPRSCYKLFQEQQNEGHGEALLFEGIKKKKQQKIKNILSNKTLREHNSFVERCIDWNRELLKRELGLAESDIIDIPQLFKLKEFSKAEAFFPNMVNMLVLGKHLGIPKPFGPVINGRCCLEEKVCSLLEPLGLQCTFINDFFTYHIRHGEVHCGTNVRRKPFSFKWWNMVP

As for `COc1cc(C(=O)N2CCC[C@@H](N)[C@H]2C)cc2nc(-c3cc4ccc5nc4n3CCCCC[C@]3(F)C[C@H]3C(=O)N[C@@H]5C)n(C)c12` [Example 706, (2~{R},5~{S},7~{S})-14-[5-[(2~{R},3~{R})-3-amino-2-methyl-piperidine-1-carbonyl]-7-methoxy-1-methyl-benzimidazol-2-yl]-7-fluoro-2-methyl-3,13,19-triazatetracyclo[11.5.2.0^ {5,7}.0^{16,20}]icosa-1(19),14,16(20),17-tetraen-4-one], the IC50 is 19 nM.
With `COCCn1c(-c2cc3ccc4nc3n2CCCCC[C@@H]2C[C@H]2C(=O)N[C@@H]4C)nc2cc(C(=O)N3C[C@H](N)[C@@H]4CC[C@H]3C4)cc(OC)c21` [Example 817, (2~{R},5~{R},7~{R})-14-[5-[(1~{S},4~{R},5~{R})-4-amino-2-[3.2.1]octane-2-carbonyl]-7-methoxy-1-(2-methoxyethyl)benzimidazol-2-yl]-2-methyl-3,13,19-triazatetracyclo[11.5.2.0^ {5,7}.0^{16,20}]icosa-1(18),14,16,19-tetraen-4-one], the IC50 came out at 13 nM.
With `COc1cc(C(=O)N2CCC[C@@H](N)C2)cc2nc(-c3cc4ccc5nc4n3C[C@H]3C[C@H]3CC[C@@H]3C[C@H]3C(=O)N[C@@H]5C)n(C)c12` (single isomer, unassigned) [Example 115, (3˜{S},5˜{R},8˜{R},10˜{R},13˜{R})-19-[5-[(3˜{R})-3-aminopiperidine-1-carbonyl]-7-methoxy-1-methyl-benzimidazol-2-yl]-13-methyl-1,12,21-triazapentacyclo[12.5.2.0^{3,5}.0^{8,10}.0^{17,20}]henicosa-14(21),15,17(20),18-tetraen-11-one], the IC50 is 40 nM.
Turning to `COc1cc(C(=O)N2CC[C@@H](OC)[C@@H](N)C2)cc2nc(-c3cc4ccc5nc4n3CCCCC[C@@H]3C[C@@]3(C)C(=O)N[C@@H]5C)n(C)c12` [Example 583, (2~{R},5~{R},7~{R})-14-[5-[(3~{S),4~{R})-3-amino-4-methoxy-piperidine-1-carbonyl]-7-methoxy-1-methyl-benzimidazol-2-yl]-2,5-dimethyl-3,13,19-triazatetracyclo[11.5.2.0^ {5,7}.0^{16,20}]icosa-1(19), 14,16(20),17-tetraen-4-one], the IC50 stood at 69 nM.
For the compound `C[C@H]1NC(=O)c2ccc(Cl)nc2CCCC(F)(F)Cn2c(-c3nc4cc(C(=O)N5C[C@H](N)[C@@H]6CC[C@H]5C6)cc(F)c4n3C3CC3)cc3ccc1nc32` [Example 814, (2~{R})-17-[5-[(1~{S), 4~{R},5~{R})-4-amino-2-azabicyclo[3.2.1]octane-2-carbonyl]-1-cyclopropyl-7-fluoro-benzimidazol-2-yl]-8-chloro-14,14-difluoro-2-methyl-3,9,16,22-tetrazatetracyclo[14.5.2.0^ {5,10).0^{19,23}]tricosa-1(21),5(10),6,8,17,19,22-heptaen-4-one], the half-inhibitory concentration (IC50) came to 38 nM.
Take `COc1cc(C(=O)N2[C@H]3CC[C@@H]2[C@H](N)C3)cc2nc(-c3cc4ccc5cc4n3CCCCCCC(C)(C)C(=O)Nc3ccccc3-5)n(C)c12` [Example 100, 18-[5-[(1~{R},2~{R},4~{S})-2-amino-7-azabicyclo[2.2.1]heptane-7-carbonyl]-7-methoxy-1-methyl-benzimidazol-2-yl]-10,10-dimethyl-8,17-diazatetracyclo[15.5.2.0^{2,7}.0^{20,24}] tetracosa-1(23),2(7),3,5,18,20(24),21-heptaen-9-one]: the IC50 turned out to be 833 nM.
Take `CO[C@@H]1CCN(C(=O)c2cc(F)c3c(c2)nc(-c2cc4ccc5nc4n2CCCCCC[C@@](F)(c2cccc(Cl)n2)C(=O)N[C@@H]5C)n3C2CC2)C[C@@H]1N` [Example 875, (8~{R},11~{R})-17-[5-[(3~{S), 4~{R})-3-amino-4-methoxy-piperidine-1-carbonyl]-1-cyclopropyl-7-fluoro-benzimidazol-2-yl]-8-(6-chloro-2-pyridyl)-8-fluoro-11-methyl-1,10,19-triazatricyclo[10.5.2.0^{15,18}] nonadeca-12(19), 13,15(18),16-tetraen-9-one]: the concentration for half-maximal inhibition (IC50) worked out at 148 nM.
On to `C[C@H]1NC(=O)[C@@H]2C[C@@]2(F)CCCCCn2c(-c3nc4cc(C(=O)N5C[C@H](N)[C@@H]6CC[C@H]5C6)cc(F)c4n3C3CC3)cc3ccc1nc32` [Example 450, (2~{R},5~{S},7~{S})-14-[5-[(1~{S},4~{R},5~{R})-4-amino-2-azabicyclo[3.2.1]octane-2-carbonyl]-1-cyclopropyl-7-fluoro-benzimidazol-2-yl]-7-fluoro-2-methyl-3,13,19-triazatetracyclo[11.5.2.0^{5,7}.0^{16,20}] icosa-1(19),14,16(20),17-tetraen-4-one], for which the IC50 was determined as 21 nM.
Regarding `COc1cc(C(=O)N[C@H]2CNCC[C@@H]2F)cc2nc(-c3cc4ccc5nc4n3CCCCCC(C)(C)C(=O)N[C@@H]5C)n(C)c12` [Example 76, ~{N}-[(3~{S),4~{S})-4-fluoro-3-piperidyl]-7-methoxy-1-methyl-2-[(10~{R})-7,7,10-trimethyl-8-oxo-1,9,18-triazatricyclo[9.5.2.0^{14,17}]octadeca-11(18),12,14(17),15-tetraen-16-yl]benzimidazole-5-carboxamide], the IC50 came out at 87 nM.
Under `C[C@H]1NC(=O)C(C)(C)CCCCCCn2c(-c3nc4cc(C(=O)N[C@H]5CNCC[C@@H]5F)ccc4n3C)cc3ccc1nc32` [Example 500, ~{N}-[(3~{S},4~ {S})-4-fluoro-3-piperidyl]-1-methyl-2-[(11~{R})-8,8,11-trimethyl-9-oxo-1,10,19-triazatricyclo[10.5.2.0^ {15,18}]nonadeca-12(19), 13,15(18),16-tetraen-17-yl]benzimidazole-5-carboxamide] stands 90 nM; under `C[C@H]1NC(=O)c2ccc(Cl)nc2CCCCCn2c(-c3nc4cc(C(=O)N5C[C@H](N)[C@@H]6CC[C@H]5[C@H]6F)cc(F)c4n3C3CC3)cc3ccc1nc32` [Example 669, (2~{R})-17-[5-[(1~{S}, 4~{R},5~{S},8~{S})-4-amino-8-fluoro-2-azabicyclo[3.2.1]octane-2-carbonyl]-1-cyclopropyl-7-fluoro-benzimidazol-2-yl]-8-chloro-2-methyl-3,9,16,22-tetrazatetracyclo[14.5.2.0^ {5,10).0^{19,23}]tricosa-1(22),5(10),6,8,17,19(23),20-heptaen-4-one], 45 nM.
Then `COc1cc(C(=O)N2CC[C@@H](OC(F)F)[C@@H](N)C2)cc2nc(-c3cc4ccc5nc4n3CCCCCC[C@@](C)(C(F)(F)F)C(=O)N[C@@H]5C)n(C)c12` [Example 723, (8~{R},11~{R})-17-[5-[(3~ {S},4~{R})-3-amino-4-(difluoromethoxy)piperidine-1-carbonyl]-7-methoxy-1-methyl-benzimidazol-2-yl]-8,11-dimethyl-8-(trifluoromethyl)-1,10,19-triazatricyclo[10.5.2.0^ {15,18}]nonadeca-12(19), 13,15(18),16-tetraen-9-one], with 309 nM.
As to `C[C@H]1NC(=O)c2c(F)cncc2CCCCCn2c(-c3nc4cc(C(=O)N5C[C@H](N)[C@@H]6CC[C@H]5C6)cc(F)c4n3C3CC3)cc3ccc1nc32` [Example 440, (2~{R})-17-[5-[(1~{S},4~{R},5~{R})-4-amino-2-azabicyclo[3.2.1]octane-2-carbonyl]-1-cyclopropyl-7-fluoro-benzimidazol-2-yl]-6-fluoro-2-methyl-3,8,16,22-tetrazatetracyclo[14.5.2.0^{5,10}.0^{19,23}] tricosa-1(22),5(10),6,8,17,19(23),20-heptaen-4-one], the IC50 turned out to be 27 nM.
With `COc1cc(C(=O)N[C@H]2CNCCC2(F)F)cc2nc(-c3cc4ccc5nc4n3CCCCCCC(C)(C)C(=O)N[C@@H]5C)n(C)c12` [Example 294, ~{N}-[(3~{S})-4,4-difluoro-3-piperidyl]-7-methoxy-1-methyl-2-[(11~{R})-8,8,11-trimethyl-9-oxo-1,10,19-triazatricyclo[10.5.2.0^{15,18}]nonadeca-12(19),13,15(18),16-tetraen-17-yl]benzimidazole-5-carboxamide], the half-inhibitory concentration (IC50) is 275 nM.
Turning to `C[C@H]1NC(=O)[C@@H]2C[C@H]2CCCC(F)(F)Cn2c(-c3nc4cc(C(=O)N[C@H]5CNCC[C@@H]5F)c(F)cc4n3C)cc3ccc1nc32` [Example 595, 2-[(2~{R},5~{R},7~ {R})-11,11-difluoro-2-methyl-4-oxo-3,13,19-triazatetracyclo[11.5.2.0^ {5,7}.0^{16,20}]icosa-1(19),14,16(20),17-tetraen-14-yl]-6-fluoro-~ {N}-[(3~{S},4~{S})-4-fluoro-3-piperidyl]-1-methyl-benzimidazole-5-carboxamide], the half-inhibitory concentration (IC50) came out at 37 nM.
For the compound `COc1cc(C(=O)N2CCC[C@@H](N)C2)cc2nc(-c3cc4ccc5nc4n3CCCCCCCCC(=O)N[C@@H]5C)n(C)c12` [Example 283, (12~{R})-18-[5-[(3~{R})-3-aminopiperidine-1-carbonyl]-7-methoxy-1-methyl-benzimidazol-2-yl]-12-methyl-1,11,20-triazatricyclo[11.5.2.0^{16,19}]icosa-13(20),14,16(19),17-tetraen-10-one], the half-inhibitory concentration (IC50) is 13 nM.
On to `COc1cc(C(=O)N2[C@H]3CC[C@@H]2[C@H](N)C3)cc2nc(-c3cc4ccc5nc4n3C[C@@H]3C[C@@H]3COCCC(=O)N[C@@H]5C)n(C)c12` [Example 337, (3~{R},5~{S},12~{R})-18-[5-[(1~{R},2~{R},4~{S})-2-amino-7-azabicyclo[2.2.1]heptane-7-carbonyl]-7-methoxy-1-methyl-benzimidazol-2-yl]-12-methyl-7-oxa-1,11,20-triazatetracyclo[11.5.2.0^{3,5}.0^{16,19}] icosa-13(20),14,16(19),17-tetraen-10-one], for which the half-inhibitory concentration (IC50) worked out at 32 nM.

The values above are taken from patent publication US11976083B2, “Inhibitors of peptidylarginine deiminases” (Gilead Sciences, Inc., priority 2020, dated 2024).
